Experimental data as given in PubChem BioAssay AID180 (DTP/NCI, 2004).
“And” between values parts separate entries of the source, which are not always exact repeats. Identical values can stand only once.

System: BDF1 mice, Adenocarcinoma 755 s.c., tumor weight T/C
Experiment: NCI In Vivo Anticancer Drug Screen. Data for tumor model Adenocarcinoma 755 (subcutaneous) in B6D2F1 (BDF1) mice
Conditions: endpoint: mean tumor weight, schedule: Q01DX011 (ip), higher = larger tumour
Experimental: The antitumor activity of compounds was measured in mice bearing transplantable tumors. Survival or tumor size were measured and the results are expressed as the measurement made in the treated group (T) divided by the measurement made in the vehicle treated control group (C). The tumor model used in this assay is Adenocarcinoma 755 (subcutaneous) in B6D2F1 (BDF1) mice

[1] = dose: 15.0 mg/kg/injection, vehicle: methylcellulose (MC)
[2] = dose: 30.0 mg/kg/injection, vehicle: methylcellulose (MC)
[3] = dose: 125.0 mg/kg/injection, vehicle: methylcellulose (MC)
[4] = dose: 250.0 mg/kg/injection, vehicle: methylcellulose (MC)
[5] = dose: 31.0 mg/kg/injection, vehicle: methylcellulose (MC)
[6] = dose: 62.0 mg/kg/injection, vehicle: methylcellulose (MC)

CCN(CC)CCC(=O)N1CCN(C(=O)CCN(CC)CC)CC1
T/C (dose: 3.8 mg/kg/injection, vehicle: methylcellulose (MC)): 110 % of control | T/C (dose: 7.5 mg/kg/injection, vehicle: methylcellulose (MC)): 113 % of control | T/C [1]: 71 % of control | T/C [2]: 79 % of control | T/C (dose: 30.0 mg/kg/injection, vehicle: saline): 119 % of control | T/C (dose: 60.0 mg/kg/injection, vehicle: saline): 105 % of control

c1nc2c3c(n1)ncn3CCN2
T/C (dose: 25.0 mg/kg/injection, vehicle: saline): 85 % of control | T/C (dose: 75.0 mg/kg/injection, vehicle: saline): 74 % of control | T/C (dose: 225.0 mg/kg/injection, vehicle: saline): 99 % of control

C=C(C)[C@H]1Cc2c(ccc3c2O[C@@H]2COc4cc(OC)c(OC)cc4[C@@H]2C3=O)O1
T/C (dose: 0.5 mg/kg/injection, vehicle: water): 93 % of control | T/C (dose: 0.75 mg/kg/injection, vehicle: water): 96 % of control | T/C (dose: 1.0 mg/kg/injection, vehicle: water): 74 % of control | T/C (dose: 2.0 mg/kg/injection, vehicle: water): 88 % of control

Nc1nc(SCc2ccccc2)c2ncn(Cc3ccccc3)c2n1
T/C (dose: 62.5 mg/kg/injection, vehicle: methylcellulose (MC)): 28 % of control | T/C [3]: 14 % of control | T/C [4]: 7 % of control

CC[N+]([O-])(CC)c1n(C)c2c(=O)n(C)c(=O)n(C)c2[n+]1[O-]
T/C [2]: 93 % of control | T/C (dose: 60.0 mg/kg/injection, vehicle: methylcellulose (MC)): 96 % of control | T/C (dose: 120.0 mg/kg/injection, vehicle: methylcellulose (MC)): 110 % of control | T/C (dose: 240.0 mg/kg/injection, vehicle: methylcellulose (MC)): 70 % of control

CC1CN1P(=O)(N1CC2CCC(CC2)C1)N1CC1C (stereo not given)
T/C (dose: 7.0 mg/kg/injection, vehicle: saline): 109 % of control | T/C (dose: 14.0 mg/kg/injection, vehicle: saline): 87 % of control | T/C (dose: 28.0 mg/kg/injection, vehicle: saline): 87 % of control

c1ccc(N2N=C3N(c4ccccc4)C2N3c2ccccc2)cc1
T/C (dose: 15.0 mg/kg/injection, vehicle: other): 87 % of control

CCC(C)Cn1cnc2c(SCc3ccccn3)nc(N)nc21 (stereo not given)
T/C (dose: 16.2 mg/kg/injection, vehicle: methylcellulose (MC)): 37 % of control | T/C (dose: 32.5 mg/kg/injection, vehicle: methylcellulose (MC)): 32 % of control | T/C (dose: 65.0 mg/kg/injection, vehicle: methylcellulose (MC)): 23 % of control and 29 % of control

CCc1c(Cl)nc(N)nc1Nc1ccccc1Br
T/C [1]: 96 % of control | T/C [5]: 101 % of control | T/C [6]: 76 % of control | T/C [4]: 75 % of control

CC1NC(=O)NC1CCCCCC(=O)O (stereo not given)
T/C (dose: 89.06 mg/kg/injection, vehicle: carboxymethylcellulose (CMC)): 122 % of control | T/C (dose: 125.0 mg/kg/injection, vehicle: carboxymethylcellulose (CMC)): 75 % of control | T/C (dose: 178.13 mg/kg/injection, vehicle: carboxymethylcellulose (CMC)): 83 % of control | T/C (dose: 250.0 mg/kg/injection, vehicle: carboxymethylcellulose (CMC)): 49 % of control | T/C (dose: 356.25 mg/kg/injection, vehicle: carboxymethylcellulose (CMC)): 90 % of control | T/C (dose: 500.0 mg/kg/injection, vehicle: carboxymethylcellulose (CMC)): 68 % of control | T/C (dose: 712.5 mg/kg/injection, vehicle: carboxymethylcellulose (CMC)): 47 % of control | T/C (dose: 1000.0 mg/kg/injection, vehicle: carboxymethylcellulose (CMC)): 69 % of control

CC(=O)N(C)c1ccccc1
T/C (dose: 12.5 mg/kg/injection, vehicle: other): 69 % of control | T/C (dose: 25.0 mg/kg/injection, vehicle: other): 88 % of control | T/C (dose: 50.0 mg/kg/injection, vehicle: other): 73 % of control | T/C (dose: 100.0 mg/kg/injection, vehicle: other): 95 % of control

CN(C)N=Nc1ccc(CCCC(=O)NN)cc1
T/C (dose: 31.0 mg/kg/injection, vehicle: carboxymethylcellulose (CMC)): 60 % of control | T/C (dose: 62.0 mg/kg/injection, vehicle: carboxymethylcellulose (CMC)): 10 % of control

O=C(O)C(O)C(O)C(O)C(O)CO.O=C(O)C(O)C(O)C(O)C(O)CO.O=C(O)C(O)C(O)C(O)C(O)CO.[Ga] (stereo not given)
T/C (dose: 10.0 mg/kg/injection, vehicle: carboxymethylcellulose (CMC)): 72 % of control | T/C (dose: 20.0 mg/kg/injection, vehicle: carboxymethylcellulose (CMC)): 64 % of control | T/C (dose: 40.0 mg/kg/injection, vehicle: carboxymethylcellulose (CMC)): 25 % of control | T/C (dose: 80.0 mg/kg/injection, vehicle: carboxymethylcellulose (CMC)): 10 % of control

CCN(CC)c1nc(SCc2ccc(Cl)cc2Cl)ncc1C
T/C [1]: 56 % of control | T/C [5]: 89 % of control | T/C [6]: 71 % of control | T/C [3]: 61 % of control | T/C [4]: 54 % of control

O=C(O)CCCc1ccc(N(CCCl)CCCl)cc1
T/C (dose: 0.5 mg/kg/injection, vehicle: carboxymethylcellulose (CMC)): 93 % of control | T/C (dose: 1.0 mg/kg/injection, vehicle: carboxymethylcellulose (CMC)): 43 % of control | T/C (dose: 1.25 mg/kg/injection, vehicle: methylcellulose (MC)): 31 % of control | T/C (dose: 1.81 mg/kg/injection, vehicle: carboxymethylcellulose (CMC)): 60 % of control | T/C (dose: 1.94 mg/kg/injection, vehicle: carboxymethylcellulose (CMC)): 38 % of control | T/C (dose: 2.0 mg/kg/injection, vehicle: saline): 99 % of control | T/C (dose: 2.5 mg/kg/injection, vehicle: methylcellulose (MC)): 89 % of control | T/C (dose: 3.63 mg/kg/injection, vehicle: carboxymethylcellulose (CMC)): 34 % of control | T/C (dose: 3.88 mg/kg/injection, vehicle: carboxymethylcellulose (CMC)): 37 % of control | T/C (dose: 4.0 mg/kg/injection, vehicle: saline): 49 % of control | T/C (dose: 5.0 mg/kg/injection, vehicle: methylcellulose (MC)): 33 % of control | T/C (dose: 5.8 mg/kg/injection, vehicle: carboxymethylcellulose (CMC)): 41 % of control | T/C (dose: 6.2 mg/kg/injection, vehicle: carboxymethylcellulose (CMC)): 75 % of control | T/C (dose: 6.25 mg/kg/injection, vehicle: methylcellulose (MC)): 26 % of control | T/C (dose: 7.25 mg/kg/injection, vehicle: carboxymethylcellulose (CMC)): 30 % of control and 48 % of control | T/C (dose: 7.75 mg/kg/injection, vehicle: carboxymethylcellulose (CMC)): 16 % of control and 29 % of control | T/C (dose: 8.0 mg/kg/injection, vehicle: saline): 37 % of control | T/C (dose: 9.66 mg/kg/injection, vehicle: carboxymethylcellulose (CMC)): 9 % of control | T/C (dose: 10.0 mg/kg/injection, vehicle: methylcellulose (MC)): 10 % of control | T/C (dose: 10.33 mg/kg/injection, vehicle: carboxymethylcellulose (CMC)): 14 % of control | T/C (dose: 12.5 mg/kg/injection, vehicle: methylcellulose (MC)): 5 % of control | T/C (dose: 14.5 mg/kg/injection, vehicle: carboxymethylcellulose (CMC)): 2 % of control and 6 % of control | T/C (dose: 15.5 mg/kg/injection, vehicle: carboxymethylcellulose (CMC)): 4 % of control | T/C (dose: 1812.0 micrograms/kg/injection, vehicle: carboxymethylcellulose (CMC)): 118 % of control | T/C (dose: 3625.0 micrograms/kg/injection, vehicle: carboxymethylcellulose (CMC)): 58 % of control | T/C (dose: 7250.0 micrograms/kg/injection, vehicle: carboxymethylcellulose (CMC)): 59 % of control
